{"source": "patent US6583150B1", "about": "“Pharmaceutical composition based on polyaromatic compounds” (Laboratorie L. Lafon, priority 1999, dated 2003)", "key": {"[1]": {"assay": "Determination of the maximum tolerated dose (MTD)", "assay_type": "in vivo", "details": "mouse, in vivo, ip; single intraperitoneal administration, survival over 14 days, B6D2F1/Jico mice", "experimental": "The evaluation of the maximum tolerated dose was carried out on 4- to 6-week-old B6D2F1/Jico mice. […] The value of the MTD (expressed in mg/kg) is determined from observing the survival rate of the animals over a period of 14 days after a single administration of the product under consideration. The change in the weight of the animals is also monitored over this period."}, "A549": {"tested_on": "A549", "assay": "MTT cytotoxicity test, A549", "assay_type": "cell-based", "details": "Homo sapiens, A549 non-small-cell lung cancer, 72 hours, read-out: concentrations flanking the IC50", "experimental": "(§1) The influence of the compounds of formulae I and II on neoplastic cells was evaluated using the MTT calorimetric test. The principle of the MTT test is based on the mitochondrial reduction by metabolically active live cells of the yellow-colored product MTT (3-(4,5-dimethylthiazol-2-yl)-2,5-diphenyltetrazolium bromide) to a blue-colored product, formazan. The amount of formazan thus obtained is directly proportional to the amount of live cells present in the culture well(s). This amount of formazan is measured by spectrophotometry.\n(§2) The cell lines are maintained in monolayer culture at 37° C. in stoppered culture dishes containing 25 MM HEPES MEM (Minimum Essential Medium) base medium. This medium, which is suitable for growing a range of varied diploid or primary mammalian cells, is then supplemented: […]\n(§3) with a an amount of 5% FCS (Fetal Calf Serum) decomplemented at 56° C. for 1 hour, with 0.6 mg/mL of L-glutamine, with 200 IU/mL of penicillin, with […] of streptomycin, with 0.1 mg/mL of gentamicin.\nThe 12 human cancer cell lines used were obtained from the American Type Culture Collection (ATCC, Rockville, Md., USA). These 12 cell lines are: […]"}, "[2]": {"tested_on": "12 human tumor lines: U-87MG, U-373MG, SW 1088, T24, J82, HCT-15, LoVo, MCF7, T-47D, A549, A-427 and PC-3", "assay": "MTT cytotoxicity test, panel of the 12 human tumor lines", "assay_type": "cell-based", "details": "Homo sapiens, read-out: average IC50", "experimental": "as §1, §2, §3\n(§4) The 12 human cancer cell lines used were obtained from the American Type Culture Collection (ATCC, Rockville, Md., USA). These 12 cell lines are:\nU-373MG (code ATCC: HTB-17) and U-87MG (code ATCC: HTB-14) which are two glioblastomas, SW1088 (code ATCC: HTB-12) which is an astrocytoma, A549 (code ATCC: CCL-185) and A-427 (code ATCC: HTB-53) which are two non-small-cell lung cancers, HCT-15 (code ATCC: CCL-225) and LoVo (code ATCC: CCL-229) which are two colorectal cancers, T-47D (code ATCC: HTB-133) and MCF7 (code ATCC: HTB-22) which are two breast cancers, J82 (code ATCC: HTB-1) and T24 (code ATCC: HTB-4) which are two bladder cancers, PC-3 (code ATCC: CRL-1435) which is a prostate cancer.\nExperimentally: 100 μl of a cell suspension containing 200 000 to 50 000 (depending on the cell type used) cells/mL of culture medium are inoculated in flat-bottomed 96-well multi-well plates and are incubated at 37° C. under an atmosphere comprising 5% CO2 and 70% humidity. After incubating for 24 hours, the culture medium is replaced with 100 μl of fresh medium containing either the various test compounds at concentrations ranging from 10^−5 to 10^−10 M or the solvent used to dissolve the test products (control condition). After incubating for 72 hours under the above conditions, the culture medium is replaced with 100 μl of a yellowish solution of MTT dissolved at a rate of 1 mg/mL in RPMI 1640. The microplates are reincubated for 3 hours at 37° C. and then centrifuged for 10 minutes at 400×g. The yellowish solution of MTT is removed and the blue formazan crystals formed at the cellular level are dissolved in 100 μl of DMSO. The microplates are then agitated for 5 minutes. The intensity of the resulting blue coloration, and thus of the conversion of the yellow MTT product into blue formazan by the cells that are still alive at the end of the experiment is quantified by spectrophotometry using a DYNATECH IMMUNOASSAY SYSTEM machine at wavelengths of 570 nm and 630 nm corresponding, respectively, to the maximum absorption wavelengths of formazan and to the background noise. Software built into the spectrophotometer calculates the average optical density values and also the standard deviation (Std. Dev.) and standard error of mean (SEM) values.\nThe inhibitory activity on the cell growth of the compounds of formula I and of formula II on the different tumor cell lines was compared with that of the natural product meridine (CRL 8348). All of the compounds of formula I and of formula II show significant inhibitory activity on the cell proliferation of the 12 human tumor lines: U-87MG, U-373MG, SW 1088, T24, J82, HCT-15, LoVo, MCF7, T-47D, A549, A-427 and PC-3 with an inhibitory concentration 50 (IC50) which is between 10^−6 M and 10^−10M, depending on the compounds and the tumor lines tested. By way of example, the values of the concentrations flanking the IC50 which are obtained on the various cell lines are given in table II: […]"}, "U-87MG": {"tested_on": "U-87MG", "assay": "MTT cytotoxicity test, U-87MG", "assay_type": "cell-based", "details": "Homo sapiens, U-87MG glioblastoma, 72 hours, read-out: concentrations flanking the IC50", "experimental": "as §1, §2, §3, §4\n(§5) U-373MG (code ATCC: HTB-17) and U-87MG (code ATCC: HTB-14) which are two glioblastomas, Experimentally: 100 μl of a cell suspension containing 200 000 to 50 000 (depending on the cell type used) cells/mL of culture medium are inoculated in flat-bottomed 96-well multi-well plates and are incubated at 37° C. under an atmosphere comprising 5% CO2 and 70% humidity. […] The intensity of the resulting blue coloration, and thus of the conversion of the yellow MTT product into blue formazan by the cells that are still alive at the end of the experiment is quantified by spectrophotometry using a DYNATECH IMMUNOASSAY SYSTEM machine at wavelengths of 570 nm and 630 nm corresponding, respectively, to the maximum absorption wavelengths of formazan and to the background noise. […]"}, "U-373MG": {"tested_on": "U-373MG", "assay": "MTT cytotoxicity test, U-373MG", "assay_type": "cell-based", "details": "Homo sapiens, U373 MG, U-373MG glioblastoma, 72 hours, read-out: concentrations flanking the IC50", "experimental": "as §1, §2, §3, §4, §5"}}}
{"smiles": "COc1ccnc2c1C(=O)c1c(-c3ccccc3NC(=O)C(F)(F)F)ccnc1C2=O", "note": "[CRL 8275, 6-Methoxy-4-(2-trifluoroacetamidophenyl)pyrido-[3,2-g]quinoline-5,10-dione]", "values": [{"measurement": "MTD at 14 days", "setting": "[1]", "value": 80, "unit": "mg/kg"}, {"measurement": "IC50", "setting": "A549", "value": "< 0.1", "unit": "nM"}, {"measurement": "IC50", "setting": "[2]", "value": 2.3, "unit": "nM"}, {"measurement": "IC50", "setting": "U-87MG", "value": "< 0.1", "unit": "nM"}, {"measurement": "IC50", "setting": "U-373MG", "value": "< 0.1", "unit": "nM"}]}
